Peptide text beside a SMILES is read from it. * marks the point of attachment. X1 = CCCCCCCCCCCCCCCC(=O)OCC(C*)OC(=O)CCCCCCCCCCCCCCC

The target of one series is T1, hTLR5 (Homo sapiens, UniProt O60602).
T1 construct: host or cells: HEK-293 (293/hTLR5, clone hTLR 5-luc)
The series is classed as cell-based. As to the method:
(§1) Cells: Human embryonic kidney cells 293 (HEK) were stably transfected with plasmids allowing for the constitutive expression of one or two Toll like Receptors of human origin (hTLR). The resulting cell lines 293/hTLR2-CD14, 293/hTLR3, 293/hTLR4-MD2-CD14, 293/hTLR5, 293/hTLR2/6, 293/hTLR7, 293/hTLR8 and 293/hTLR9 were purchased from InvivoGen (San Diego, Calif., USA). All cell lines were cultivated in the presence of Blasticidin S (10 μg/ml, InvivoGen) in Dulbecco's […] Eagle's medium (DMEM) supplemented with 10% fetal calf serum, 40 μg/ml Gentamycin, 2 mM Glutamine, 1 mM sodium pyruvate (Sigma) and 1× Non Essential Amino acids (NEAA, Gibco). In the case of 293/hTLR2-CD14 and 293/hTLR4-MD2-CD14 Hygromycin B was added to a concentration of 100 μg/ml. All eight cell lines were stably transfected with the NF-kB-inducible reporter plasmid pNiFty (InvivoGen). pNiFty encodes the firefly luciferase gene under control of an engineered ELAM1 promoter which combines five NF-kB sites and the proximal ELAM promoter. Stable transfectants were selected in the presence of 100 μg/ml Zeocin (InvivoGen). The emerging clones “hTLRx-luc” were characterized with respect to EC50 and fold-induction to the respective control TLR ligands. Clones with lowest EC50 and high fold inductions and good/acceptable growth behaviour were chosen.
(§2) In vitro TLR tests—method: Cells diluted in DMEM supplemented with 2% fetal calf serum, 40 μg/ml Gentamycin, 2 mM Glutamine, 1 mM sodium pyruvate (Sigma) and 1×MEM non essential amino acids (NEAA, Gibco) were seeded in 96 well plates. The next day. NA fraction (stock: 1 mg/ml) either alone or in combination with Lipofectin® (as described in Example 1) was added at a concentration of 16 μg/ml and 3-fold serial dilutions thereof. As positive controls, the cell lines were stimulated with a defined amount of their respective reference ligands. The day after stimulation (18-20 hours) later, cells were lysed in 100 μl buffer containing 125 mM Tris pH 7.8, 10 mM EDTA, 5 mM DTT and 5% Triton X-100. Firefly luciferase activity in 10 μl lysate was quantified by integrate measurement of flash luminescence over 1 sec (LB96 P Microlumat, Berthold) after addition of 50 μl luciferase revelation buffer (1× luciferase revelation buffer: 20 mM Tris pH 7.8, 1.07 mM MgCl2, 2.7 mM MgSO4, 0.1 mM EDTA, 33.3 mM DTT, 470 μM luciferine 530 μM ATP and 270 μM CoEnzyme A). The resulting relative light units (RLU) were expressed as percentage of induction compared to the control ligand and analyzed with the Graph Pad Prism 4 software using an equation for sigmoid dose response (determination of EC50).

A further series deals with T2, hTLR3 (Homo sapiens, UniProt O15455).
T2 construct: host or cells: HEK-293 (293/hTLR3, clone hTLR 3-luc)
T2 sequence (O15455 24-904): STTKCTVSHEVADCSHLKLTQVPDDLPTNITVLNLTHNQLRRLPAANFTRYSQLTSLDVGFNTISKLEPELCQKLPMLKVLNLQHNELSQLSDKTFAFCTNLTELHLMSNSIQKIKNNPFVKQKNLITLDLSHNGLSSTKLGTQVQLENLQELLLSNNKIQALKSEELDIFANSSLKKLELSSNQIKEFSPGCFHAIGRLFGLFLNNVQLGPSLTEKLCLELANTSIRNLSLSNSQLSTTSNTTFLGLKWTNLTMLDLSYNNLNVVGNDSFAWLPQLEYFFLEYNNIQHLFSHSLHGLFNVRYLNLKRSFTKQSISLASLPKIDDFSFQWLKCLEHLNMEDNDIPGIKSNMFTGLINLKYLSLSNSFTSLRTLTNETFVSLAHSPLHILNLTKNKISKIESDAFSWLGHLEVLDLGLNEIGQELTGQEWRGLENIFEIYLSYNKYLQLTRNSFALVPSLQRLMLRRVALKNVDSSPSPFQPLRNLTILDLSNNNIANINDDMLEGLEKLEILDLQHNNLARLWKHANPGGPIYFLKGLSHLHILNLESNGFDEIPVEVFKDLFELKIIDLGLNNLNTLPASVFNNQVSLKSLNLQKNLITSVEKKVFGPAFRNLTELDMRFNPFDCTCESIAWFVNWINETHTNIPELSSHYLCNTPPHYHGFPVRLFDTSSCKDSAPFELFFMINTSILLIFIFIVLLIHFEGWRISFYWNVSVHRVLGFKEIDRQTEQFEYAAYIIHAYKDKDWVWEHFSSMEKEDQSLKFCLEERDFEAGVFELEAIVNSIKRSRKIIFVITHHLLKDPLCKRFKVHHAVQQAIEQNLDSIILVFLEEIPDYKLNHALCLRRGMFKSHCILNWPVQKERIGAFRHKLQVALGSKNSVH
The class given is cell-based. As to the method: as §1, §2

The test system of series [1] is R9F specific CD8+ T cells secreting IFN-γ. As to the kind of experiment: In vivo ELISpot gamma interferon (IFN-γ) after immunisation with HPV16E7. The conditions noted are these: C57BL/6 mice; HPV16E7 protein 10 μg subcutaneously day 0, 7, 14, alone or with NA fraction (25 μg) or NA-B2 fraction (0.4 μg); splenocytes 7 days after last injection; FIG. 2. As to the method:
Animals model: SPF healthy female C57BL/6 mice were obtained from Charles River (Les Oncins, France). The animals were 6-weeks-old upon arrival. At the beginning of experimentation, they were 7-week-old. The animals were housed in a single, exclusive room, air-conditioned to provide a minimum of 11 air changes per hour. The temperature and relative humidity ranges were within 20° C. and 24° C. and 40 to 70% respectively. Lighting was controlled automatically to give a cycle of 12 hours of light and 12 hours of darkness. Specific pathogen free status was checked by regular control of sentinel animals. Throughout the study the animals had access ad libitum to sterilized diet type RM1 (Dietex France, Saint Gratien). Sterile water was provided ad libitum via bottles.
IFN-γ ELIspot assay is a functional test to determine the ability of in vivo primed T cells to secrete IFN-γ upon re-stimulation in vitro with a specific peptide.
Animals were injected 3 times at a one week interval (day 0; day 7; day 14), subcutaneously (at the base of the tail) with preparations as described in Table 4.
Animals were then sacrificed 7 days after the last injection and their splenocytes were used to determine the frequency of R9F specific CD8+ T cells secreting IFN-γ upon re-stimulation. […]

The next series deals with T3, hTLR2 (Homo sapiens, UniProt O60603).
T3 construct: host or cells: HEK-293 (293/hTLR2-CD14, clone hTLR 2-luc)
T3 sequence (O60603 21-784): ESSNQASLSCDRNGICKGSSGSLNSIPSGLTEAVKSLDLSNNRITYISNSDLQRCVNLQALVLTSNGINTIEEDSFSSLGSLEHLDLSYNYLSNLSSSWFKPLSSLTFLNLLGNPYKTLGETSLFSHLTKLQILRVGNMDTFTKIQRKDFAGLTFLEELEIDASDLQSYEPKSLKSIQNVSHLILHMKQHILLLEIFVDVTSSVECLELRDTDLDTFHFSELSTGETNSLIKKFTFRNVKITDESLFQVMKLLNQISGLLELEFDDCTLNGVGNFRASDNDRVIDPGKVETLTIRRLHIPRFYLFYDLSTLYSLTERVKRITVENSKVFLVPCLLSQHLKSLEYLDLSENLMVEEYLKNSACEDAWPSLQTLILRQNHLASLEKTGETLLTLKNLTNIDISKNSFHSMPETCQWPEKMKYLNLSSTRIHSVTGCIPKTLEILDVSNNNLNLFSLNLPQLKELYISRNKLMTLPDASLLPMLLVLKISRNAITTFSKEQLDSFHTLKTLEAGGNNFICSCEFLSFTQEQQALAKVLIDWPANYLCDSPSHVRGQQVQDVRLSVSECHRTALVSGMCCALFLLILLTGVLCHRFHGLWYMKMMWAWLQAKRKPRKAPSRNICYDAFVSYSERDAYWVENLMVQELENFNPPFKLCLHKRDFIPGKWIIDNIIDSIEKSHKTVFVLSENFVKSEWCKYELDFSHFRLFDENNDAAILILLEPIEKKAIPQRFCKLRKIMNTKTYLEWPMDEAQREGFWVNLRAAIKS
T3 sequence (Q9Y2C9 32-796 partner): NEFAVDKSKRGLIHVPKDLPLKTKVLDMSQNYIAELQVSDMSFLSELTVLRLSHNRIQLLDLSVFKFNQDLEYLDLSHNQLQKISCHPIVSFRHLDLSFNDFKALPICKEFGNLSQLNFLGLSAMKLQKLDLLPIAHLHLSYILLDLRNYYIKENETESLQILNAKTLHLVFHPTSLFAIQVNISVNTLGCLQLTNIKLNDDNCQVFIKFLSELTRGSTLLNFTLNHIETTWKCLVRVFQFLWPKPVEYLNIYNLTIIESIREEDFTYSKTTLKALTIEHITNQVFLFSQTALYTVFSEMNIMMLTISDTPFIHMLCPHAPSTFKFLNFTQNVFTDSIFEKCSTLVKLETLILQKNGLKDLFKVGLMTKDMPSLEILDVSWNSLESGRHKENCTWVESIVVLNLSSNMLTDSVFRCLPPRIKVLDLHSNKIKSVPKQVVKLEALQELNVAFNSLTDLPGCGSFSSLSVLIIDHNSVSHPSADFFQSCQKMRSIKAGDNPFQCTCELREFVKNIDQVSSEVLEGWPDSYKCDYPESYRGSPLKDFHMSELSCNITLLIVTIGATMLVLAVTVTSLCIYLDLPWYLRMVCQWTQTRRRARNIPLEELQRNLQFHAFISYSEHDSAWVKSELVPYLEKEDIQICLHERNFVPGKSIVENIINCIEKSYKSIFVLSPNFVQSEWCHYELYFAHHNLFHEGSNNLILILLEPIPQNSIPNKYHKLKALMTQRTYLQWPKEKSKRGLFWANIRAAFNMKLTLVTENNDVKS
The class given is cell-based. The method, then: as §1, §2

Another series concerns the target T4, hTLR2/6 (Homo sapiens, UniProt O60603+Q9Y2C9).
T4 construct: host or cells: HEK-293 (293/hTLR2/6, clone hTLR 2/6-luc)
The class given is cell-based. As to the method:
as §1, §2

T1 sequence (O60602 21-858): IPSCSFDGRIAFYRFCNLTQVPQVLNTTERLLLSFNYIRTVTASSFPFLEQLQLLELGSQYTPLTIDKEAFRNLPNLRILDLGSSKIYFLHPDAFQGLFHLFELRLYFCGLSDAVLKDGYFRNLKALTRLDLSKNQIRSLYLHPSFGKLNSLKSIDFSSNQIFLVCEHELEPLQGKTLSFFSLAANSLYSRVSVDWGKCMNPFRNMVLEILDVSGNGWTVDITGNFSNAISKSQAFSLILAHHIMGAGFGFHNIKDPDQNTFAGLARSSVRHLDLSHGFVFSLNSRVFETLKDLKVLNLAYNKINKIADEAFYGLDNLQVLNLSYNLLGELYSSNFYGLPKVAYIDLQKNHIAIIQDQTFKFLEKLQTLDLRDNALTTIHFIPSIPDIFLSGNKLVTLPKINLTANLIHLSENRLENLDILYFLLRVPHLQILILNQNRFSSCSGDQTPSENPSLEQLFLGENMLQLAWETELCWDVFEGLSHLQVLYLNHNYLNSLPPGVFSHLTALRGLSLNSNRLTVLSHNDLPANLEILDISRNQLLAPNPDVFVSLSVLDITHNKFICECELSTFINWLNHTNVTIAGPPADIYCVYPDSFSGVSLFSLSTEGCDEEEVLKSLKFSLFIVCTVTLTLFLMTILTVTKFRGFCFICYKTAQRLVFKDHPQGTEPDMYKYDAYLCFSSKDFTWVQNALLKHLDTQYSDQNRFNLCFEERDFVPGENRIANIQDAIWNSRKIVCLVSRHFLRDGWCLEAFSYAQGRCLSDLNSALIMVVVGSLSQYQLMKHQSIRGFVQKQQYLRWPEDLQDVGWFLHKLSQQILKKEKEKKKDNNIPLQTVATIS
T4 sequence (O60603 21-784): as the sequence (O60603 21-784) above
T4 sequence (Q9Y2C9 32-796): as the sequence (Q9Y2C9 32-796 partner) above

Flagellin: at hTLR5, the Fold induction max/min came out at 392. Further, the “Ligand EC50” value on hTLR5 (hTLR 5-luc clone, control TLR ligand) is listed as “Flagellin 66.2ng/ml”.
Take Poly(I:C): at hTLR3, the Fold induction max/min worked out at 62. Moreover, the “Ligand EC50” value on hTLR3 (hTLR 3-luc clone, control TLR ligand) is “Poly(I:C) 1.8ng/ml”.
For HPV16E7: HPV16 E7 protein antigen, the “Level of R9F specific T cells secreting IFN-γ (ELISpot)” value in series [1] is given as “no R9F specific (HPV16E7 protein) T cells secreting IFN-γ”.
Take `CCCCCCCCCCCCCCCC(=O)OCC(CSC[C@H](N)C(=O)NCC(=O)N[C@@H](CC(=O)O)C(=O)N1CCC[C@H]1C(=O)N[C@@H](CCCCN)C(=O)N[C@@H](Cc1c[nH]cn1)C(=O)N1CCC[C@H]1C(=O)N[C@@H](CCCCN)C(=O)N[C@@H](CO)C(=O)N[C@@H](Cc1ccccc1)C(=O)O)OC(=O)CCCCCCCCCCCCCCC` (stereo partly shown) [FSL-1] (H-C(X1)GDPKHPKSF-OH; N-terminus and C-terminus assumed): the fold induction worked out at 157 at hTLR2 and 140 on hTLR2/6.

As a reminder, the fold induction is the ratio of treated to control signal.

Values taken from US20110287089A1, “USE OF A SACCHAROMYCES CEREVISIAE MITOCHONDRIAL NUCLEIC ACIDS FRACTION FOR IMMUNE STIMULATION” (priority 2009, published 2011).
